# Reference: US20030166201A1, “Selection systems for genetically modified cells” (priority 2001, published 2003)
# Read-outs that look alike come from different tables or passages of the source.
# Experiments:
# DHODH [1] = molecular target: T1, DHODH (Homo sapiens, UniProt Q02127); conditions: cited from earlier work; for Km: substrate/cosubstrate
# Target sequence in this assay (Q02127 whole entry): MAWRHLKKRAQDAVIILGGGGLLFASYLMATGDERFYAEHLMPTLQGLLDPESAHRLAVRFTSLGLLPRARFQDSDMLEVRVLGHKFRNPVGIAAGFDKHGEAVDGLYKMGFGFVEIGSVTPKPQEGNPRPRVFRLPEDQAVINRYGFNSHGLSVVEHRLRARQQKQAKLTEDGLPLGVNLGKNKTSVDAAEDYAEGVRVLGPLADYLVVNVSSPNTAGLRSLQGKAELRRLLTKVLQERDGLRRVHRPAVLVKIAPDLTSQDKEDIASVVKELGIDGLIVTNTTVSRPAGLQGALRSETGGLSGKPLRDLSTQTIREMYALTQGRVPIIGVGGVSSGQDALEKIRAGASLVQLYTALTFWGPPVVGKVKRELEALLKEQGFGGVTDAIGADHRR
# DHODH [2] = molecular target: T1, DHODH; conditions: cited from earlier work
# Target sequence in this assay (Q02127 whole entry, species assumed): as the sequence (Q02127 whole entry) above
# [3] = daily dosage of 2-3 g MMF, adult transplant recipients; cited from earlier work
# Jurkat T cells [4] = assay: Proliferation (3H-Tdr incorporation) of untransfected or mock-transfected Jurkat T cells; format: cell-based, human
# Description: (§1) Jurkat T cells (Human CD4+ T cell line from American Type Culture Collection, ATCC Number: TIB-152) were passaged in T cell culture media containing 0, 100, 125, 150, 175, and 200 μg/ml hygromycin. Unless otherwise stated, T cell culture media was prepared by addition of 13.7 ml HEPES (Irvine Scientific catalog No. 9319), 5 ml L-Glutamine (BioWhittaker Catalog No. 17-605C) and 57 ml heat inactivated fetal calf serum (Hyclone catalog No. SH30070.03) to 500 ml RPMI 1640 medium without Phenol Red pH indicator (Irvine Scientific catalog No. 9160).
# To assess proliferation by ^3H-Tdr incorporation, a volume of cell suspension containing 5×10^6 cells was diluted to 10 ml and incubated at 37° C. and 5% CO2. On days 8, 10, 12, and 15, volumes of cell suspension yielding 0.6×10^6 cells were placed in 15 ml conical tubes and centrifuged at 1100 rpm for 8 minutes at room temperature. Supernatant was removed and cells were resuspended in […] T cell media. Aliquots of 0.1 ml each were dispensed into wells of a 96 well round bottom plate. Six wells were used for each clone. ^3H-Tdr (ICN catalog No. 24041) was diluted 1:20 with T cell media. Each well was pulsed by adding 50 μl/well (lpCi ^3H-Tdr/well) dilute ^3H-Tdr and incubating for 4 hours. Wells were harvested onto filter paper using a PhD Cell Harvester and CPM were counted in a liquid scintillation counter by standard scintillation procedures.
# (§2) The amount of cell proliferation and viability were measured by the methods described in Example 1 at 72, 96, and 144 hours thereafter. OKT3/rhlL-2-activated PBMCs from healthy donors were passaged under the above conditions, and the amount of cell proliferation measured at the same time intervals.
# Jurkat T cells (ATCC Number: TIB-152) were grown in T cell culture media in log phase and then subjected to electroporation by the method described in Example 1 in the presence of plasmid DNA vector IMPDH(T333I/S351Y)/pMG as described above. As a control (“mock”), Jurkat T cells were mock-transfected by electroporation with plasmid-free buffer.
# As a control, mock-transfected Jurkat T cells were passaged under the same conditions.
# As a control, mock-transfected Jurkat T cells were cultured under the same conditions.
# Jurkat T cells [5] = assay: Viability (Trypan Blue) of untransfected or mock-transfected Jurkat T cells; format: cell-based, human
# Description: as §1
# (§3) The viability of Jurkat T cells and PBMCs was determined using the Trypan Blue method for counting and calculating the number of live cells. […] Viable cells (unstained cells) and dead cells (blue stained cells) were counted in two diagonally opposite large corner squares of the hemacytometer and the total number of viable cells in the suspension and percentage of viable cells in the population were calculated. The total number of viable cells in the suspension was calculated by multiplying the mean number of cells counted per square by the dilution factor multiplied by 10^4. The percentage of viable cells in the population was calculated by dividing the total number of viable cells per ml by the total number of cells per ml multiplied by 100. […]
# [6] = tested on: OKT3/rhIL-2-activated PBMCs; assay: Proliferation (3H-Tdr incorporation) of OKT3/rhIL-2-activated PBMCs; format: cell-based, human; conditions: MPA 1×10^−7M to 1×10^−4M, 72, 96, 144 hours
# Description: (§4) Five hundred million freshly isolated, healthy donor peripheral blood mononuclear cells (PBMCs) were diluted to a volume of 500 ml with T cell culture media. PBMCs were activated with 15 λ anti-CD3 monoclonal antibody Orthoclone OKT3 (Ortho Biotech Inc.). Ten 50 ml aliquots of PBMC/OKT3 were placed in separate flasks. To each PBMC/OKT3 flask, 50 μL of stock 50 U/μl recombinant human IL-2 (Chiron catalog No. 53905-991-01) was added to stimulate proliferation. OKT3/rhIL-2-activated PBMCs were passaged under the same conditions as described for the Jurkat T cells. The amount of Jurkat T cell and PBMC proliferation was determined by measuring DNA incorporation of ^3H-Tdr 8, 10, 12, and 15 days thereafter.
# To assess proliferation by ^3H-Tdr incorporation, a volume of cell suspension containing 5×10^6 cells was diluted to 10 ml and incubated at 37° C. and 5% CO2. […] Wells were harvested onto filter paper using a PhD Cell Harvester and CPM were counted in a liquid scintillation counter by standard scintillation procedures.
# as §2
# [7] = tested on: OKT3/rhIL-2-activated PBMCs; assay: Viability (Trypan Blue) of OKT3/rhIL-2-activated PBMCs; format: cell-based, human; conditions: MPA 1×10^−7M to 1×10^−4M, 72, 96, 144 hours
# Description: as §4
# as §3, with “10^4.” for “10^4. The percentage of viable cells in the population was calculated by dividing the total number of viable cells per ml by the total number of cells per ml multiplied by 100.”
# [8] = tested on: Jurkat T cells transfected with plasmid IMPDH(T333I/S351Y)/pMG; assay: Proliferation (3H-Tdr incorporation) of Jurkat T cells transfected with IMPDH(T333I/S351Y)/pMG; format: cell-based, human
# [9] = tested on: Jurkat T cells transfected with plasmid IMPDH(T333I/S351Y)/pMG; assay: Viability (Trypan Blue) of Jurkat T cells transfected with IMPDH(T333I/S351Y)/pMG; format: cell-based, human; conditions: hygromycin-resistant transfectants
# Bacillus subtilis IMPDH = Bacillus subtilis IMPDH (Bacillus subtilis, UniProt P21879); conditions: Farazi et al. 1997; cited from earlier work
# Escherichia coli IMPDH = Escherichia coli IMPDH (Escherichia coli, UniProt P0ADG7); conditions: Farazi et al. 1997; cited from earlier work
# [10] = molecular target: Tritrichomonas foetus IMPDH (Tritrichomonas foetus, UniProt P50097); conditions: Farazi et al. 1997; cited from earlier work
# IMPDH type II [11] = molecular target: T2, IMPDH type II (Homo sapiens, UniProt P12268); conditions: cited from earlier work
# type I IMPDH = type I IMPDH (Homo sapiens, UniProt P20839); conditions: cited from earlier work; for Ki: product inhibition
# type II IMPDH = type II IMPDH (Homo sapiens, UniProt P12268); conditions: cited from earlier work; for Ki: product inhibition
# IMPDH = conditions: competition for NAD+ cofactor-binding site; Yamada et al. 1989; read-out: Ki against NAD; cited from earlier work
# IMPDH type I = IMPDH type I (Homo sapiens, UniProt P20839); conditions: uncompetitive inhibitor; read-out: Ki against type I; cited from earlier work
# IMPDH type II [12] = molecular target: T2, IMPDH type II; conditions: uncompetitive inhibitor; read-out: Ki against type II; cited from earlier work
# [13] = tested on: B cell and T cell proliferation; conditions: cited from earlier work
# [14] = human DHODH, read-out: Ki, uncompetitive with respect to dihydroorotate
# [15] = Jurkat, MPA 1×10^−7M to 1×10^−4M, 72, 96, 144 hours
# Sequence of type I IMPDH (P20839 whole entry): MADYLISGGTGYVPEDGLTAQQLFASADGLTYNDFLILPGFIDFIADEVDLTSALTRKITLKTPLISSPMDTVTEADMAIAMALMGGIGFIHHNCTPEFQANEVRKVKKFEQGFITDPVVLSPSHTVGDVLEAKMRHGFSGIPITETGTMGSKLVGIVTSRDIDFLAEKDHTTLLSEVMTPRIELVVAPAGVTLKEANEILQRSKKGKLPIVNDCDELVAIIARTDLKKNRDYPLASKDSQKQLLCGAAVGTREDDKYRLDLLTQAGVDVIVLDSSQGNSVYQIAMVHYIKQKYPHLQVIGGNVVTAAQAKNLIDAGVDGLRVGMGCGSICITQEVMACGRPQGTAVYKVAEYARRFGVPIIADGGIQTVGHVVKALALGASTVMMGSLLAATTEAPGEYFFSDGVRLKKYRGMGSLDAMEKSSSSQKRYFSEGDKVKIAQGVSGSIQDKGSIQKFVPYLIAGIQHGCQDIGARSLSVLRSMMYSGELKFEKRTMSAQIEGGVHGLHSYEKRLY
# Sequence of Tritrichomonas foetus IMPDH (P50097 whole entry): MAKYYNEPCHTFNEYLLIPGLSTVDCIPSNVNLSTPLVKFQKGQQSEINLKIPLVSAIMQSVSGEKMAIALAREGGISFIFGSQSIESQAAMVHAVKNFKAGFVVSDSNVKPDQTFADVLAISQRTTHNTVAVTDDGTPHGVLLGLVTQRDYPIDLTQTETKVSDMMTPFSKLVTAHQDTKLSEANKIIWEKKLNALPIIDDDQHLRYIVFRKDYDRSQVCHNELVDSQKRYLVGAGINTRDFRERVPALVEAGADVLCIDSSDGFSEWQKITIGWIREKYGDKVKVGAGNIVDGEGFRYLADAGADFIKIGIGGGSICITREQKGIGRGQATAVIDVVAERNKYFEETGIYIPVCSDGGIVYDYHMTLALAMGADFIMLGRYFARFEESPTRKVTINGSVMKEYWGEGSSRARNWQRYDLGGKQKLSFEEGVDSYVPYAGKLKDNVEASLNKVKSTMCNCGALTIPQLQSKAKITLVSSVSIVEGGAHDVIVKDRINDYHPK
# Sequence of Escherichia coli IMPDH (P0ADG7 whole entry): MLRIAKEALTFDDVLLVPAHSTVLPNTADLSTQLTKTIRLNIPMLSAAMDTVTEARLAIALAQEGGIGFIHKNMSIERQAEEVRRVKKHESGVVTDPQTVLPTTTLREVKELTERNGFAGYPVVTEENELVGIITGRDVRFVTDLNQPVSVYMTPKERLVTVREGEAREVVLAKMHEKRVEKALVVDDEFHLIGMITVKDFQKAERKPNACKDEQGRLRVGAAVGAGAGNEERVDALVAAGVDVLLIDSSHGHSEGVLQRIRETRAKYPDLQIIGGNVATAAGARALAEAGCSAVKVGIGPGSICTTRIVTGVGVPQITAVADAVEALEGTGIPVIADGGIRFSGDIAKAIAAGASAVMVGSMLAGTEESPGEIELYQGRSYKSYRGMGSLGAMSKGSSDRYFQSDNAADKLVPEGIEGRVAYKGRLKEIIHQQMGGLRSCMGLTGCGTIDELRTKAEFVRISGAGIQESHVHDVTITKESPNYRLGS
# Sequence of Bacillus subtilis IMPDH (P21879 whole entry): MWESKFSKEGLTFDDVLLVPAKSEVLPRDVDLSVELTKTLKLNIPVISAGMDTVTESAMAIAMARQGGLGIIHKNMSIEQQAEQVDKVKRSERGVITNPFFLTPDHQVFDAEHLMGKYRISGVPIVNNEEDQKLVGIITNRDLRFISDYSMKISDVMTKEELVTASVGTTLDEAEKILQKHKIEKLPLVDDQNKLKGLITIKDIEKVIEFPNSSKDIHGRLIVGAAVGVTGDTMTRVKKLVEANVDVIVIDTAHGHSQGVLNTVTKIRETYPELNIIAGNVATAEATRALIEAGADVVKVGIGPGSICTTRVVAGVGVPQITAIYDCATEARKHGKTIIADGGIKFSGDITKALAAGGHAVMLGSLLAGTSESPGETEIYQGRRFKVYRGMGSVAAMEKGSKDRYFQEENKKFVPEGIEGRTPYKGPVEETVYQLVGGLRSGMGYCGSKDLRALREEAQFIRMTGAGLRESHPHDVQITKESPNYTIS
# Sequence of IMPDH type I (P20839 whole entry): as the sequence (P20839 whole entry) above
compound,measurement,setting,value
O=C1C(O)=C([C@H]2CC[C@H](c3ccc(Cl)cc3)CC2)C(=O)c2ccccc21 [Atovaquone],Ki,DHODH [1]; [14],11.5 µM
"Cc1nc2c(n1-c1ccc(Br)cc1)C(=O)c1ccccc1C2=O [BNID, 1-(p-bromophenyl)-2-methyl 1H-napth(2,3-d)-imidazole-4,9-dione]",Ki,DHODH [2],0.53 µM
"O=C1C(O)=C(CC=C(Cl)Cl)C(=O)c2ccccc21 [DCL, dichloroallyl lawsone]",Ki,"DHODH [1]; human DHODH, read-out: Ki, competitive with respect to ubiquinone",0.0098 µM
same,Ki,DHODH [1]; [14],0.038 µM
"COc1c(C)c2c(c(O)c1C/C=C(\C)CCC(=O)OCCN1CCOCC1)C(=O)OC2 [MMF, Mycophenolate mofetil]",therapeutically relevant blood trough levels,[3],1 to 5 µg/mL
"COc1c(C)c2c(c(O)c1C/C=C(\C)CCC(=O)O)C(=O)OC2 [MPA, Mycophenolic acid]",proliferation vs. absence of MPA,Jurkat T cells [4]; [15],significantly reduced
same,proliferation in presence of mycophenolic acid,"Jurkat T cells [4]; control Jurkat, MPA 1×10^−6M to 2×10^−5M",essentially completely inhibited
same,proliferation in medium containing mycophenolic acid,"Jurkat T cells [4]; mock-transfected Jurkat, MPA 2×10^−7M to 2×10^−5M",did not proliferate
same,"3H-Tdr incorporation, % of media control","Jurkat T cells [4]; mock-transfected Jurkat, mycophenolic acid 2×10^−7 M and greater",less than 3%
same,viability vs. absence of MPA,Jurkat T cells [5]; [15],significantly reduced
same,viable cells in medium containing mycophenolic acid,"Jurkat T cells [5]; mock-transfected Jurkat, by 36 days",no viable cells were detected
same,proliferation vs. absence of MPA,[6],"significantly reduced by MPA at all concentrations, except the lowest concentration"
same,viability vs. absence of MPA,[7],"significantly reduced by MPA at all concentrations, except the lowest concentration"
same,maximum 3H-Tdr incorporation maintained,"[8]; five of the ten MPA-resistant clones, MPA 1×10^−6M or less",greater than 50%
same,"proliferation, % of the maximum proliferation in the absence of MPA","[8]; hygromycin-resistant transfectants, 2×10^−6M to 2×10^−7M MPA",20-92%
same,transfectant cells demonstrating proliferation,"[8]; limiting dilution in 3×10^−6 M mycophenolic acid, 21 days after transfection, 10^4 cells per well",Approximately 10%
same,viability at day 21 post-transfer compared to day 0,[9]; higher concentrations of mycophenolic acid,somewhat less viable
same,viability at day 21 post-transfer,[9]; lower concentrations of mycophenolic acid,more viable at day 21 post-transfer than those cultured in medium containing higher concentrations of mycophenolic acid
same,Ki,Bacillus subtilis IMPDH,0.5 µM
same,Ki,Escherichia coli IMPDH,20 µM
same,Ki,[10],14 µM
same,higher binding affinity for human IMPDH type II over human IMPDH type I,IMPDH type II [11],approximately 5 fold
NC(=O)C1=CN([C@@H]2O[C@H](COP(=O)(O)OP(=O)(O)OC[C@H]3O[C@@H](n4cnc5c(N)ncnc54)[C@H](O)[C@@H]3O)[C@@H](O)[C@H]2O)C=CC1 [NADH],Ki,type I IMPDH,~102 µM
same,Ki,type II IMPDH,~90 µM
NC(=O)c1ccc[n+]([C@@H]2O[C@H](COP(=O)([O-])OP(=O)(O)OC[C@H]3O[C@@H](n4cnc5c(N)ncnc54)[C@H](O)[C@@H]3O)[C@@H](O)[C@H]2O)c1 [NAD],Km,type I IMPDH; substrate/cofactor,~46 µM
same,Km,type II IMPDH; substrate/cofactor,~32 µM
CC(=O)N1CCc2c([nH]c3ccc(Br)cc23)C1c1ccccc1 (stereo not shown) [NSC 665564],IC50 compared with Brequinar,DHODH [2],comparable IC50 to Brequinar
same,Ki compared with Brequinar,DHODH [2],lower Ki
O=C(O)c1cc(=O)[nH]c(=O)[nH]1 [Orotate],Ki,"DHODH [1]; competitive with respect to dihydroorotate, read-out: Kis (slope inhibition constant)",22 ± 3 µM
same,Ki,"DHODH [1]; uncompetitive with respect to quinone, read-out: Kij (intercept inhibition constant)",60 ± 10 µM
COc1cc(-c2ccc(Nc3ccccc3C(=O)O)c(OC)c2)ccc1Nc1ccccc1C(=O)O [Redoxal],Ki,"DHODH [1]; non-competitive for dihydroorotate and ubiquinone, read-out: apparent Ki",0.33 µM
"NC(=O)c1csc(C2O[C@@H](COP(=O)(O)OP(=O)(O)OC[C@H]3OC(n4cnc5c(N)ncnc54)[C@H](O)[C@@H]3O)[C@H](O)[C@@H]2O)n1 (stereo partly shown) [TAD, thiazole-4-carboxamide adenine dinucleotide]",Ki,IMPDH,0.075 µM
COc1cc(NC(=O)Nc2cccc(CNC(=O)O[C@H]3CCOC3)c2)ccc1-c1cnco1 [VX-497],Ki,IMPDH type I,0.007 µM
same,Ki,IMPDH type II [12],0.01 µM
same,IC50,[13],~0.1 µM
CCCCCCCCCCC1=C(C)C(=O)C(OC)=C(OC)C1=O [decylubiqunone],Km,DHODH [1]; human DHODH,~13.7 µM
O=C1CC(C(=O)O)NC(=O)N1 (stereo not shown) [dihydroorotate],Km,DHODH [1]; human DHODH,~9.4 µM
COC1=C(OC)C(=O)C(C/C=C(\C)CC/C=C(\C)CC/C=C(\C)CC/C=C(\C)CC/C=C(\C)CC/C=C(\C)CC/C=C(\C)CC/C=C(\C)CC/C=C(\C)CCC=C(C)C)=C(C)C1=O [ubiquinone],Km,DHODH [1]; human DHODH,~110 µM
xanthine monophosphate [XMP],Ki,type I IMPDH,~80 µM
same,Ki,type II IMPDH,~94 µM
